Source: patent US8987287B2, “Spirocyclic morphinans and their use” (Purdue Pharma L.P., priority 2012, dated 2015)

How the values were obtained:
[1] = molecular target: μ-opioid receptor (Homo sapiens (Human), UniProt P35372); experiment: μ-opioid receptor radioligand ([3H]-diprenorphine) dose-displacement binding assay; conditions: binding affinity, read-out: Opioid Receptor Ki (nM) μ
Description: μ-Opioid Receptor Binding Assay Procedures: Radioligand dose-displacement binding assays for μ-opioid receptors used 0.3 nM [^3H]-diprenorphine (Perkin Elmer, Shelton, Conn.), with […] membrane protein/well in a final volume of 500 μl binding buffer (10 mM MgCl2, 1 mM EDTA, 5% DMSO, 50 mM HEPES, pH 7.4). Reactions were carried out in the absence or presence of increasing concentrations of unlabeled naloxone. All reactions were conducted in 96-deep well polypropylene plates for 2 hours at room temperature. Binding reactions were terminated by rapid filtration onto 96-well Unifilter GF/C filter plates (Perkin Elmer, Shelton, Conn.), presoaked in 0.5% polyethylenimine using a 96-well tissue harvester (Perkin Elmer, Shelton, Conn.) followed by performing three filtration washes with 500 μl of ice-cold binding buffer. Filter plates were subsequently dried at 50° C. for 2-3 hours. BetaScint scintillation cocktail (Perkin Elmer, Shelton, Conn.) was added (50 μl/well), and plates were counted using a Packard Top-Count for 1 min/well. The data were analyzed using the one-site competition curve fitting functions in GraphPad PRISM™ v. 3.0 or higher (San Diego, Calif.), or an in-house function for one-site competition curve-fitting.
(§1) In TABLE 1, binding affinity of certain Compounds of the Invention to the μ-, δ- and κ-opioid receptors was determined as described above.

[2] = molecular target: T1, κ opioid receptor (Homo sapiens (Human), UniProt P41145); experiment: κ-opioid receptor radioligand ([3H]-U69,593) dose-displacement binding assay; conditions: binding affinity, read-out: Opioid Receptor Ki (nM) κ
Description: κ-Opioid Receptor Binding Assay Procedures: Membranes from recombinantHEK-293 cells, CHO or U-2 OS cells expressing the recombinant human κ opioid receptor (κ) were prepared by lysing cells in ice cold hypotonic buffer (2.5 mM MgCl2, 50 mM HEPES, pH 7.4) (10 mL/10 cm dish) followed by homogenization with a tissue grinder/Teflon pestle. Membranes were collected by centrifugation at 30,000×g for 15 min at 4° C. and pellets were resuspended in hypotonic buffer to a final concentration of 1-3 mg/mL. Protein concentrations were determined using the BioRad protein assay reagent with bovine serum albumen as standard. Aliquots of κ receptor membranes were stored at −80° C.
Radioligand dose displacement assays used 0.4 nM [^3H]-U69,593 (GE Healthcare, Piscataway, N.J.; 40 Ci/mmole) with 15 μg membrane protein (recombinant κ opioid receptor expressed in HEK 293 cells; in-house prep) in a final volume of 200 μl binding buffer (5% DMSO, 50 mM Trizma base, pH 7.4). Non-specific binding was determined in the presence of 10 μM unlabeled naloxone or U69,593. All reactions were performed in 96-well polypropylene plates for 1 hour at a temperature of about 25° C. Binding reactions were terminated by rapid filtration onto 96-well Unifilter GF/C filter plates (Perkin Elmer, Shelton, Conn.) presoaked in 0.5% polyethylenimine (Sigma). Harvesting was performed using a 96-well tissue harvester (Perkin Elmer, Shelton, Conn.) followed by five filtration washes with 200 μl ice-cold binding buffer. Filter plates were subsequently dried at 50° C. for 1-2 hours. Fifty μl/well scintillation cocktail (Perkin Elmer, Shelton, Conn.) was added and plates were counted in a Packard Top-Count for 1 min/well.
as §1

[3] = molecular target: δ opioid receptor (Homo sapiens (Human), UniProt P41143); experiment: δ-opioid receptor radioligand ([3H]-Naltrindole) dose-displacement binding assay; conditions: binding affinity
Chain of δ opioid receptor (P41143 whole entry, looked up): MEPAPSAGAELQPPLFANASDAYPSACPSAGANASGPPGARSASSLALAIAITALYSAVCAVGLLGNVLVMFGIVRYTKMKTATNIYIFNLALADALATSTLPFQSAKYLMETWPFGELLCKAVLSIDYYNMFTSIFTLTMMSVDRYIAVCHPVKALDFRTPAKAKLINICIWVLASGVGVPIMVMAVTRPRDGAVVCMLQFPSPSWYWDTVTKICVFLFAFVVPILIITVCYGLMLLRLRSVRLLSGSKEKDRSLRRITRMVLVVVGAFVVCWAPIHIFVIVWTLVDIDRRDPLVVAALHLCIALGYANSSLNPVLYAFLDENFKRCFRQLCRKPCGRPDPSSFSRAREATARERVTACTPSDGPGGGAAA
Description: δ-Opioid Receptor Binding Assay Procedures: δ-Opioid Receptor Binding Assay Procedures were conducted as follows. Radioligand dose-displacement assays used 0.3 nM [^3H]-Naltrindole (Perkin Elmer, Shelton, Conn.; 33.0 Ci/mmole) with 5 μg membrane protein (Perkin Elmer, Shelton, Conn.) in a final volume of 500 μl binding buffer (5 mM MgCl2, 5% DMSO, 50 mM Trizma base, pH 7.4). Non-specific binding was determined in the presence of 25 μM unlabeled naloxone. All reactions were performed in 96-deep well polypropylene plates for 1 hour at a temperature of about 25° C. Binding reactions were terminated by rapid filtration onto 96-well Unifilter GF/C filter plates (Perkin Elmer, Shelton, Conn.) presoaked in 0.5% polyethylenimine (Sigma). Harvesting was performed using a 96-well tissue harvester (Perkin Elmer, Shelton, Conn.) followed by five filtration washes with 500 μl ice-cold binding buffer. Filter plates were subsequently dried at 50° C. for 1-2 hours. Fifty μl/well scintillation cocktail (Perkin Elmer, Shelton, Conn.) was added and plates were counted in a Packard Top-Count for 1 min/well.
as §1

[4] = molecular target: T1, κ opioid receptor; experiment: κ-opioid receptor [35S]GTPγS functional assay, HEK-293 or CHO cells; type: biochemical; conditions: for Emax: relative to U69,593, HEK-293 or CHO cells
Description: κ-Opioid Receptor Functional Assay Procedures: Functional [^35S]GTPγS binding assays were conducted as follows. κ opioid receptor membrane solution was prepared by sequentially adding final concentrations of 0.026 μg/μl κ membrane protein (in-house), 10 μg/mL saponin, 3 μM GDP and 0.20 nM [^35S]GTPγS to binding buffer (100 mM NaCl, 10 mM MgCl2, 20 mM HEPES, pH 7.4) on ice. The prepared membrane solution (190 μl/well) was transferred to 96-shallow well polypropylene plates containing 10 μl of 20× concentrated stock solutions of agonist prepared in DMSO. Plates were incubated for 30 min at a temperature of about 25° C. with shaking. Reactions were terminated by rapid filtration onto 96-well Unifilter GF/B filter plates (Perkin Elmer, Shelton, Conn.) using a 96-well tissue harvester (Packard) and followed by three filtration washes with 200 μl ice-cold binding buffer (10 mM NaH2PO4, 10 mM Na2HPO4, pH 7.4). Filter plates were subsequently dried at 50° C. for 2-3 hours. Fifty μl/well scintillation cocktail (Perkin Elmer, Shelton, Conn.) was added and plates were counted in a Packard Top-Count for 1 min/well.
κ-Opioid Receptor Functional Data: κ GTP EC50 is the concentration of a compound providing 50% of the maximal response for the compound at a κ receptor.
κ GTP Emax (%) is the maximal effect elicited by a compound relative to the effect elicited by U69,593.
In TABLE 2, activity response of certain Compounds of the Invention to the μ-, δ- and κ-opioid receptors was determined as described above for functional assays using HEK-293 or CHO cells.

SMILES	Ki [1] [nM]	Ki [2] [nM]	Ki [3] [nM]	EC50 [4] [µM]	Emax [4] [%]
O=C1NC(=O)[C@@]2(CC[C@@]3(O)[C@H]4Cc5ccc(O)cc5[C@@]3(CCN4CC3CC3)C2)N1 [Compound 3, (4bR,4′S,8aS,9R)-11-(cyclopropylmethyl)-3,8a-dihydroxy-5,7,8,8a,9,10-hexahydrospiro[9,4b-(epiminoethano)phenanthrene-6,4′-imidazolidine]-2′,5′-dione]	15.9 ± 3.02	0.6 ± 0.15	177 ± 36.7	0.0548 ± 0.0126	80.2 ± 3.32
O=C1NC[C@@]2(CC[C@@]3(O)[C@H]4Cc5ccc(O)cc5[C@@]3(CCN4CC3CC3)C2)N1 [Compound 5, (4bR,4′S,8aS,9R)-11-(cyclopropylmethyl)-3,8a-dihydroxy-5,7,8,8a,9,10-hexahydrospiro[9,4b-(epiminoethano)phenanthrene-6,4′-imidazolidin]-2′-one]	3.55 ± 0.77	0.94 ± 0.18	272 ± 25.3	0.0672 ± 0.00888	67.33 ± 0.33
